Results taken from US20090197811A1, “ORALLY ADMINISTERED PEPTIDES TO IMPROVE OR PREVENT HEPATIC FIBROSIS” (University of Southern California, priority 2007, published 2009).
“And” between values parts separate entries of the source, which are not always exact repeats. Identical values can stand only once. “Also recorded” adds a separate entry of the source.

Tests used:
Type in all cases: in vivo, mouse
[1] = test system: C57Bl/6J mice; test: Western diet model: biochemical findings and liver and body weights; conditions: for GSH / TBARS: liver; for ALT / AST / Adiponectin / Cholesterol / Glucose / Insulin / Leptin / Triglycerides: serum
Procedure: SR141716 was a kind gift from Sanofi-Aventis, France. SR141716 was dissolved in water with 0.1% Tween and given daily by gavage for 10 weeks. D-4F is an 18-mer of D-amino acids (Ac-D-W-F-K-A-F-Y-D-K-V-A-E-K-F-K-E-A-F-NH2)^4 (SEQ ID NO: 1) that was commercially synthesized (A & A Laboratories, San Diego Calif.) with 80% purity. D-4F was dissolved in the drinking water at a concentration of 60 μg/ml water for a calculated dose corrected for drug purity of 125 μg D-4F/mouse/day.
The high fat diet used was the RD “Western diet” (Research Diets, D12079B), which contains 41% of calories from fat, 43% calories from carbohydrate, and 17% of calories from protein); this diet was designed to approximate the “typical” human diet of North America and Europe.
(§1) Studies were performed in male C5713L/6J mice (Jackson Laboratories, Bar Harbor Me.). Six groups were studied (n=3-5, see FIG. 1) with 4 mice per group at the outset, except for group 2, which was started with n=5; 1 mouse died in group 1. Groups 1, 2, and 3 received the Western diet for 9.5 months; during the last 2.5 months of the 9.5 months, group 2 received SR141716 10 mg/kg/day i.g., and group 3 received D-4F, 125 μg/mouse/day, in the drinking water. Groups 4, 5, and 6 received the Western diet for 7 months followed by standard chow for 2.5 months; during the 2.5 months on standard chow, group 5 received SR141716 and group 6 received D-4F as described for groups 2 and 3, respectively. Additional control groups were studied: 6-month old C57Bl/6J mice as age-matched controls (n=5) and C57Bl/6J mice that received the Western diet for 6 months (n=6).
Serum aspartate amino transferase (AST) and alanine aminotransferase (ALT) were measured with the Infinity AST and ALT liquid assay reagent (Thermo Electron Corporation, Louisville Colo., cat #TR70121 and TR71121). Serum triglycerides and cholesterol were measured with the Infinity cholesterol assay reagent (Thermo Electron Corporation, Louisville Colo., cat #TR22321 and TR13315). Serum glucose was measured with the Glucose (HK) assay kit (Sigma, St. Louis, Mo., cat #GAHK-20). Serum insulin was measured with the Mercodia Ultrasensitive mouse insulin ELISA kit (ALPCO Diagnostics, Salem N.H., cat #10 1150-01). The homeostasis model assessment insulin resistance index (HOMA-IR) was calculated as [fasting glucose (mmol/liter)*fasting insulin (microunits/ml)]/22.5^17, 18. Serum leptin was measured with the TiterZyme EIA mouse leptin kit (Assay Designs Inc, Ann Arbor Mich., cat #900-019). Serum adiponectin was measured with the mouse adiponectin kit (Biovendor LLC, Candler N.C., cat #RD 293023100). Thiobarbituric acid reactive substance (TBARS) was measured as previously described^19, 20; in brief, liver was homogenized and diluted 1:1 in 10% ice cold trichloroacetic acid. 0.5 ml supernatant or of a standard solution of 1,1,3,3-tetraethoxypropane was mixed with 0.5 ml of 0.6% (w/v) 4,6-dihydroxy-2-thiopyrimidine. The solution was boiled for 30 min, cooled and centrifuged. Absorbance was measured at 532 nm with a Shimadzu TV-2101 PC spectrophotometer. To measure hepatic glutathione (GSH), liver was homogenized and diluted 1:1 in 10% ice cold trichloroacetic acid. GSH in the supernatant was measured according to the recycling assay of Tietze^21.

[2] = test system: C57Bl/6J mice; test: Western diet model: liver histology, assessment of steatosis and inflammation; conditions: for Fatty Change Degree of fat / Fatty Change Type (predominant type) / Inflammatory Clusters: individual mice
Procedure: as §1
The slides were coded, without the pathologist knowing the specific treatment group that the slides represented. The histology was graded according to a number of histologic features. The degree of fat was graded as to the approximate percentage of hepatocytes containing fat: 0, absent; +/−, less than 5%; 1+, 5-25%; 2+. 26-50%; 3+, 51-75%; 4+, >75%. The fat was also assessed as to whether it was totally macrovesicular, predominantly macrovesicular, totally microvesicular, predominantly microvesicular, or mixed macro- and microvesicular. In addition, the zone was assessed as to whether the fat was perivenular, periportal, diffuse, or focal. Inflammation was graded as absent, scanty (1 to 3 foci/slide), present (scattered, with 4 to 10 foci/slide), present + (scattered, >10 foci/slide but not numerous), and present ++ (numerous). The type of inflammation was graded as totally mononuclear, predominantly mononuclear, totally neutrophilic, predominantly neutrophilic, and mixed mononuclear-neutrophilic. The hydropic change of hepatocytes was graded as absent, mild, and moderate/severe, with the location noted as perivenular, focal or diffuse.

[3] = test system: C57Bl/6J mice; test: Western diet model: fibrosis by Sirius red whole-section-scanning morphometric image analysis; conditions: summary statement
Procedure: as §1
Sirius red staining was performed by the Morphology core of the USC-UCLA Research Center for Alcoholic Liver and Pancreatic Diseases. α-Smooth muscle actin.
Tissue sections stained with Sirius red were scanned by a third-generation Automated Cellular Imaging System (ACIS III), a highly automated microscope-based digital imaging system (Carl Zeiss MicroImaging AIS Inc., Aliso Viejo Calif.). The color of the Sirius red staining in the digitized tissue sections was determined and applied to a pre-existing algorithm that provides the area of a target color in μm^2. The outline of each digitized tissue section was manually traced using the computer's mouse. Areas of large portal tracts and central veins were also outlined manually. The total area (μm^2) of each tissue section and of the total area of large portal tracts and central veins were determined by the image analysis system. The area of fibrosis was calculated as [total area stained by Sirius red minus perivascular staining] as a percentage of the size of the tissue section. This method has the advantage of scanning the entire section, rather than measuring fibrosis in randomly chosen fields.

[4] = 7 months Western diet followed by 2.5 months Western diet + drug
[5] = 7 months Western diet followed by 2.5 months chow + drug

SMILES: Cc1c(C(=O)NN2CCCCC2)nn(-c2ccc(Cl)cc2Cl)c1-c1ccc(Cl)cc1 [SR141716, reference compound]
- Body weight [1, 4]: 29.1 ± 2.0 g
- HOMA-IR [1, 4]: 8.8 ± 3.6
- Liver weight [1, 4]: 1.54 ± 0.1 g
- Body weight [1, 5]: 30.2 ± 1.1 g
- HOMA-IR [1, 5]: 6.1 ± 2.0
- Liver weight [1, 5]: 1.39 ± 0.1 g
- GSH [1, 4]: 68.7 ± 2.0 nmole/mg protein
- TBARS [1, 4]: 17.1 ± 0.7 nmol/g tissue
- GSH [1, 5]: 73.8 ± 2.2 nmole/mg protein
- TBARS [1, 5]: 18.7 ± 1.09 nmol/g tissue
- ALT [1, 4]: 54.8 ± 12.4 U/L
- AST [1, 4]: 109.6 ± 10.4 U/L
- Adiponectin [1, 4]: 18.4 ± 1.8 µg/mL
- Cholesterol [1, 4]: 112.2 ± 13.7 mg/dL
- Glucose [1, 4]: 136.3 ± 29.2 mg/dL
- Insulin [1, 4]: 0.81 ± 0.15 ng/mL
- Leptin [1, 4]: 2.36 ± 1.05 ng/mL
- Triglycerides [1, 4]: 33.1 ± 2.2 mg/dL
- ALT [1, 5]: 59.1 ± 11.4 U/L
- AST [1, 5]: 69.1 ± 5.5 U/L
- Adiponectin [1, 5]: 16.5 ± 2.0 µg/mL
- Cholesterol [1, 5]: 105.3 ± 4.7 mg/dL
- Glucose [1, 5]: 96.2 ± 3.0 mg/dL
- Insulin [1, 5]: 0.89 ± 0.27 ng/mL
- Leptin [1, 5]: 1.95 ± 0.72 ng/mL
- Triglycerides [1, 5]: 47.0 ± 2.2 mg/dL
- body weight (summary) ([1]; summary statement): promoted weight loss
- insulin resistance (summary) ([1]; summary statement): decreased insulin resistance
- leptin levels (summary) ([1]; summary statement): decreased leptin levels
- Fatty Change Degree of fat [2, 4]: 4 (2×) and 3 and 1
- Fatty Change Type (predominant type) [2, 4]: Microvesicular; also recorded: Mixed; also recorded: Macrovesicular
- Inflammatory Clusters [2, 4]: 1 and 2 (4×)
- Fatty Change Degree of fat [2, 5]: 3 (2×) and 2 and 1
- Fatty Change Type (predominant type) [2, 5]: Microvesicular
- Inflammatory Clusters [2, 5]: 2 (3×) and 1
- steatohepatitis (summary) ([2]; summary statement): improved steatohepatitis
- progression of fibrosis after onset of steatohepatitis [3]: prevented progression of fibrosis
